Measurements from the NIST ThermoML archive (doi:10.1021/acs.jced.5b00112).
± gives the expanded uncertainty stated by the source.

Assay: wn = mass fraction of the nth substance listed
Conditions: 348 K, 101 kPa, Liquid, Pycnometric method

Structure (SMILES)	mass density (w1 = 0.7426)	mass density (w1 = 0.5348)
[Br-].[Br-].[Ca+2] [calcium bromide] + O	2062.6 ± 3.5 kg/m3	
[Br-].[Br-].[Mg+2] [magnesium bromide (MgBr2)] + O		1674.1 ± 1.8 kg/m3
